According to patent US20240415819A1, “MACROCYCLIC COMPOUNDS AS PROTEASOME SUBUNIT BETA TYPE-5 INHIBITORS” (Lead Discovery Center GmbH, priority 2021, published 2024):

Key:
[1] = target: T1, β5 subunit of the human constitutive proteasome (CPS) (Homo sapiens, UniProt P28074); assay: β5 inhibition assay, human constitutive proteasome (Suc-LLVY-AMC); format: biochemical; details: IC50 class, Suc-LLVY-AMC substrate
T1 construct: purchased Boston Biochem E-360
Description: The enzymatic activity of the β5 subunit of the human constitutive proteasome (CPS) is analyzed. In another assay, which differs from the assay of the human constitutive proteasome only in using the human immunoproteasome (IPS) the enzymatic activity of the β5 subunit of the human immunoproteasome (IPS) is analyzed. […] Inhibition is indicated as IC50 [nM] (“-”=not measured).

[2] = target: T2, β5 subunit of the human immunoproteasome (IPS) (Homo sapiens, UniProt P28062); assay: β5 inhibition assay, human immunoproteasome (Suc-LLVY-AMC); format: biochemical; details: IC50 class, Suc-LLVY-AMC substrate
T2 construct: purchased Boston Biochem E-370
Summary of the method: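 β5 activity is read as liberated AMC fluorescence (355/460 nm) after 4 h dark reaction at RT with 22.6 μM Suc-LLVY-AMC, stopped by 1 μM bortezomib. Beforehand, 1 nM human IPS and compound sat 10 min at RT in HEPES pH 7.5 buffer containing NaCl, 0.02% SDS and DTT.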

hPMBC = assay: Chymotrypsin-like ProteasomeGlo assay in hPBMC; format: cell-based; details: Homo sapiens; read-out: Pglo hPBMC
Summary of the method: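 IC50 derived from luminescent chymotrypsin-like proteasome activity (Suc-LLVY-Glo substrate plus luciferin detection reagent). Measured after 105 min compound exposure at 37 °C, 5% CO2. Cells were human B cells purified from buffy-coat PBMC.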

| IC50 [1] [nM] | IC50 [2] [nM] | IC50 (hPMBC) [nM] | Structure (SMILES) |
| --- | --- | --- | --- |
| < 100 | < 100 | < 100 | Cc1ccc2cc1CNC(=O)[C@H](CCc1ccccc1)NC(=O)[C@@H](NC(=O)[C@H](C)c1ccccc1)CC(=O)N1CCCC(CCO2)C1 (stereo partly drawn) [Compound 80, (2R)-N-((9S,12S)-5^4-methyl-8,11,14-trioxo-9-phenethyl-4-oxa-7,10-diaza-1(3,1)-piperidina-5(1,3)-benzenacyclotetradecaphane-12-yl)-2-phenylpropanamide] |
| 100 to 500 | < 100 | 100 to 500 | COc1ccc2cc1CNC(=O)[C@H](CCc1ccccc1)NC(=O)[C@@H](NC(C)=O)CC(=O)N1CCCC(CCO2)C1 (stereo partly drawn) [Compound 211, N-((9S,12S)-5^4-methoxy-8,11,14-trioxo-9-phenethyl-4-oxa-7,10-diaza-1(3,1)-piperidina-5(1,3)-benzenacyclotetradecaphane-12-yl)acetamide] |
| < 100 | < 100 | < 100 | CC(=O)N[C@H]1CC(=O)N2CCCC(CCOc3ccc(C)c(c3)CNC(=O)C(c3cnn(CCCC(=O)O)c3)NC1=O)C2 (stereo partly drawn) [Compound 568, 4-(4-((12S)-12-acetamido-5^4-methyl-8,11,14-trioxo-4-oxa-7,10-diaza-1(3,1)-piperidina-5(1,3)-benzenacyclotetradecaphane-9-yl)-1H-pyrazol-1-yl)butanoic acid] |
| 100 to 500 | < 100 | < 100 | CC(=O)N[C@H]1CCC(=O)NCCCCOc2ccc(C)c(c2)CNC(=O)[C@H](CCc2ccccc2)NC1=O [Compound 171, N-((11S,14S)-1^4-methyl-8,12,15-trioxo-14-phenethyl-2-oxa-7,13,16-triaza-1(1,3)-benzenacycloheptadecaphane-11-yl)acetamide] |
| < 100 | < 100 | < 100 | Cc1ccc2cc1CNC(=O)[C@H](CCc1ccccc1)NC(=O)[C@@H](NS(=O)(=O)CCc1ccccc1)CC(=O)N1CCCC(CCO2)C1 (stereo partly drawn) [Compound 217, N-((9S,12S)-5^4-methyl-8,11,14-trioxo-9-phenethyl-4-oxa-7,10-diaza-1(3,1)-piperidina-5(1,3)-benzenacyclotetradecaphane-12-yl)-2-phenylethane-1-sulfonamide] |
| < 100 | < 100 | < 100 | Cc1ccc2cc1CNC(=O)[C@H](CCc1ccccc1)NC(=O)[C@@H](NC(=O)C1(C)CCOCC1)CC(=O)N1CCCC(CCO2)C1 (stereo partly drawn) [Compound 288, 4-methyl-N-((9S,12S)-5^4-methyl-8,11,14-trioxo-9-phenethyl-4-oxa-7,10-diaza-1(3,1)-piperidina-5(1,3)-benzenacyclotetradecaphane-12-yl)tetrahydro-2H-pyran-4-carboxamide] |
| < 100 | < 100 | < 100 | COc1ccc(CC(=O)N[C@H]2CC(=O)N3CCCC(CCOc4ccc(C)c(c4)CNC(=O)[C@H](CCc4ccccc4)NC2=O)C3)cc1OC (stereo partly drawn) [Compound 63, 2-(3,4-dimethoxyphenyl)-N-((9S,12S)-5^4-methyl-8,11,14-trioxo-9-phenethyl-4-oxa-7,10-diaza-1(3,1)-piperidina-5(1,3)-benzenacyclotetradecaphane-12-yl)acetamide] |
| < 100 | < 100 | 100 to 500 | CC(=O)N[C@H]1CCCC(=O)N2CCOC(CCOc3ccc(C)c(c3)CNC(=O)[C@H](CCc3ccccc3)NC1=O)C2 (stereo partly drawn) [Compound 186, N-((9S,12S)-5^4-methyl-8,11,16-trioxo-9-phenethyl-4-oxa-7,10-diaza-1(2,4)-morpholina-5(1,3)-benzenacyclohexadecaphane-12-yl)acetamide] |
| < 100 | < 100 | < 100 | Cc1ccc2cc1CNC(=O)[C@H](CCc1ccccc1)NC(=O)[C@@H](NC(=O)C1(C)CCNCC1)CC(=O)N1CCCC(CCO2)C1 (stereo partly drawn) [Compound 136, 4-methyl-N-((9S,12S)-5^4-methyl-8,11,14-trioxo-9-phenethyl-4-oxa-7,10-diaza-1(3,1)-piperidina-5(1,3)-benzenacyclotetradecaphane-12-yl)piperidine-4-carboxamide] |
| < 100 | < 100 | < 100 | Cc1ccc2cc1CNC(=O)[C@H](CCc1ccccc1)NC(=O)[C@@H](NC(=O)CCc1ccc(-c3ccccc3)cc1)CC(=O)N1CCCC(CCO2)C1 (stereo partly drawn) [Compound 176, 3-([1,1′-biphenyl]-4-yl)-N-((9S,12S)-5^4-methyl-8,11,14-trioxo-9-phenethyl-4-oxa-7,10-diaza-1(3,1)-piperidina-5(1,3)-benzenacyclotetradecaphane-12-yl)propanamide] |
| < 100 | < 100 | < 100 | C=CS(=O)(=O)N[C@H]1CC(=O)N2CCCC(CCOc3ccc(C)c(c3)CNC(=O)[C@H](CCc3ccccc3)NC1=O)C2 (stereo partly drawn) [Compound 180, N-((9S,12S)-5^4-methyl-8,11,14-trioxo-9-phenethyl-4-oxa-7,10-diaza-1(3,1)-piperidina-5(1,3)-benzenacyclotetradecaphane-12-yl)ethenesulfonamide] |
| < 100 | < 100 | < 100 | Cc1ccc2cc1CNC(=O)[C@H](CCc1ccccc1)NC(=O)[C@@H](NC(=O)C1CC(F)(F)CN1)CC(=O)N1CCCC(CCO2)C1 (stereo partly drawn) [Compound 135, (2S)-4,4-difluoro-N-((9S,12S)-5^4-methyl-8,11,14-trioxo-9-phenethyl-4-oxa-7,10-diaza-1(3,1)-piperidina-5(1,3)-benzenacyclotetradecaphane-12-yl)pyrrolidine-2-carboxamide] |
| < 100 | < 100 | < 100 | Cc1ccc2cc1CNC(=O)[C@H](CCc1ccccc1)NC(=O)[C@@H](NC(=O)Cc1ccc(N)cc1)CC(=O)N1CCCC(CCO2)C1 (stereo partly drawn) [Compound 128, 2-(4-aminophenyl)-N-((9S,12S)-5^4-methyl-8,11,14-trioxo-9-phenethyl-4-oxa-7,10-diaza-1(3,1)-piperidina-5(1,3)-benzenacyclotetradecaphane-12-yl)acetamide] |
| < 100 | < 100 | < 100 | Cc1ccc2cc1CNC(=O)[C@H](CCc1ccccc1)NC(=O)[C@@H](NC(=O)CN1CCCC1)CC(=O)N1CCCC(CCO2)C1 (stereo partly drawn) [Compound 89, N-((9S,12S)-5^4-methyl-8,11,14-trioxo-9-phenethyl-4-oxa-7,10-diaza-1(3,1)-piperidina-5(1,3)-benzenacyclotetradecaphane-12-yl)-2-(pyrrolidin-1-yl)acetamide] |
| 1000 to 5000 | 500 to 1000 | > 5000 | Cc1ccc2cc1CNC(=O)[C@@H](CCc1ccccc1)NC(=O)[C@H](NC(=O)OCc1ccccc1)CC(=O)N1CCC[C@H](CCO2)C1 [Compound 290, benzyl ((13R,9R,12R)-5^4-methyl-8,11,14-trioxo-9-phenethyl-4-oxa-7,10-diaza-1(3,1)-piperidina-5(1,3)-benzenacyclotetradecaphane-12-yl)carbamate] |
| < 100 | < 100 | < 100 | Cc1ccc2cc1CNC(=O)[C@H](CCc1ccccc1)NC(=O)[C@@H](NC(=O)C1CCN1)CC(=O)N1CCCC(CCO2)C1 (stereo partly drawn) [Compound 160, (2R)-N-((9S,12S)-5^4-methyl-8,11,14-trioxo-9-phenethyl-4-oxa-7,10-diaza-1(3,1)-piperidina-5(1,3)-benzenacyclotetradecaphane-12-yl)azetidine-2-carboxamide] |
| < 100 | < 100 | 100 to 500 | Cc1ccc2cc1CNC(=O)[C@H](CCc1ccccc1)NC(=O)[C@@H](NC(=O)c1n[nH]c3ccccc13)CC(=O)N1CCCC(CCO2)C1 (stereo partly drawn) [Compound 60, N-((9S,12S)-5^4-methyl-8,11,14-trioxo-9-phenethyl-4-oxa-7,10-diaza-1(3,1)-piperidina-5(1,3)-benzenacyclotetradecaphane-12-yl)-1H-indazole-3-carboxamide] |
| < 100 | < 100 | < 100 | Cc1ccc2cc1CNC(=O)[C@H](CCc1ccccc1)NC(=O)[C@@H](NC(=O)CCc1ccc3[nH]ccc3c1)CC(=O)N1CCCC(CCO2)C1 (stereo partly drawn) [Compound 182, 3-(1H-indol-5-yl)-N-((9S,12S)-5^4-methyl-8,11,14-trioxo-9-phenethyl-4-oxa-7,10-diaza-1(3,1)-piperidina-5(1,3)-benzenacyclotetradecaphane-12-yl)propanamide] |
| < 100 | < 100 | 100 to 500 | Cc1ccc2cc1CNC(=O)[C@H](Cc1c[nH]c3ccccc13)NC(=O)CCC(=O)N1CCCC(CCO2)C1 (stereo partly drawn) [Compound 77, (9S)-9-((1H-indol-3-yl)methyl)-5^4-methyl-4-oxa-7,10-diaza-1(3,1)-piperidina-5(1,3)-benzenacyclotetradecaphane-8,11,14-trione] |
| < 100 | < 100 | 100 to 500 | Cc1cc2cc(c1C)CNC(=O)[C@H](Cc1c[nH]c3ccccc13)NC(=O)CCC(=O)N1CCCC(CCO2)C1 (stereo partly drawn) [Compound 120, (9S)-9-((1H-indol-3-yl)methyl)-5^4,5^5-dimethyl-4-oxa-7,10-diaza-1(3,1)-piperidina-5(1,3)-benzenacyclotetradecaphane-8,11,14-trione] |
